≈ marks a conversion by molar mass, not a printed value.
Assays:
TK-10 = test: Antitumor activity against human TK10 cells assessed as cell growth at 0.1 uM; assay type: functional; details: read-out: Activity
NCI-H460 = test: Antitumor activity against human NCI-H460 cells assessed as cell growth at 0.1 uM; assay type: functional; details: read-out: Activity
MDA-MB-231 = test: Antitumor activity against human MDA-MB-231/ATCC cells assessed as cell growth at 0.1 uM; assay type: functional; details: read-out: Activity
SR = test: Antitumor activity against human SR cells assessed as cell growth at 0.1 uM; assay type: functional; details: read-out: Activity
UACC-257 = test: Antitumor activity against human UACC257 cells assessed as cell growth at 0.1 uM; assay type: functional; details: read-out: Activity
UO-31 = test: Antitumor activity against human UO31 cells assessed as cell growth at 0.1 uM; assay type: functional; details: read-out: Activity
NCI-H23 = test: Antitumor activity against human NCI-H23 cells assessed as cell growth at 0.1 uM; assay type: functional; details: read-out: Activity
K562 = test: Antitumor activity against human K562 cells assessed as cell growth at 0.1 uM; assay type: functional; details: read-out: Activity
Staphylococcus aureus = test: Antimicrobial activity against Staphylococcus aureus MTCC 96 assessed as growth inhibition measured after overnight incubation by broth dilution method; assay type: functional
RPMI-8226 = test: Antitumor activity against human RPMI8226 cells assessed as cell growth at 0.1 uM; assay type: functional; details: read-out: Activity
HL-60 = test: Antitumor activity against human HL60(TB) cells assessed as cell growth at 0.1 uM; assay type: functional; details: read-out: Activity
NCI-H226 = test: Antitumor activity against human NCI-H226 cells assessed as cell growth at 0.1 uM; assay type: functional; details: read-out: Activity
CCRF-CEM = test: Antitumor activity against human CCRF-CEM cells assessed as cell growth at 0.1 uM; assay type: functional; details: read-out: Activity
MDA-MB-468 = test: Antitumor activity against human MDA-MB-468 cells assessed as cell growth at 0.1 uM; assay type: functional; details: read-out: Activity
Candida albicans = test: Antimicrobial activity against Candida albicans MTCC 227 assessed as growth inhibition measured after overnight incubation by broth dilution method; assay type: functional
HOP-62 = test: Antitumor activity against human HOP62 cells assessed as cell growth at 0.1 uM; assay type: functional; details: read-out: Activity
[1] = Antitumor activity against human Hs 578T cells assessed as cell growth at 0.1 uM; assay type: functional; details: read-out: Activity
MCF7 = test: Antitumor activity against human MCF7 cells assessed as cell growth at 0.1 uM; assay type: functional; details: read-out: Activity
[2] = Antitumor activity against human EKVX cells assessed as cell growth at 0.1 uM; assay type: functional; details: read-out: Activity
Malme-3M = test: Antitumor activity against human MALME-3M cells assessed as cell growth at 0.1 uM; assay type: functional; details: read-out: Activity
A549 = test: Antitumor activity against human A549/ATCC cells assessed as cell growth at 0.1 uM; assay type: functional; details: read-out: Activity
OVCAR-3 = test: Antitumor activity against human OVCAR3 cells assessed as cell growth at 0.1 uM; assay type: functional; details: read-out: Activity
MOLT-4 = test: Antitumor activity against human MOLT4 cells assessed as cell growth at 0.1 uM; assay type: functional; details: read-out: Activity
SNB-75 = test: Antitumor activity against human SNB75 cells assessed as cell growth at 0.1 uM; assay type: functional; details: read-out: Activity
SF-295 = test: Antitumor activity against human SF295 cells assessed as cell growth at 0.1 uM; assay type: functional; details: read-out: Activity
MDA-MB-435 = test: Antitumor activity against human MDA-MB-435 cells assessed as cell growth at 0.1 uM; assay type: functional; details: read-out: Activity
Escherichia coli = test: Antimicrobial activity against Escherichia coli MTCC 443 assessed as growth inhibition measured after overnight incubation by broth dilution method; assay type: functional
ACHN = test: Antitumor activity against human ACHN cells assessed as cell growth at 0.1 uM; assay type: functional; details: read-out: Activity
SK-MEL-5 = test: Antitumor activity against human SK-MEL-5 cells assessed as cell growth at 0.1 uM; assay type: functional; details: read-out: Activity
OVCAR-4 = test: Antitumor activity against human OVCAR4 cells assessed as cell growth at 0.1 uM; assay type: functional; details: read-out: Activity
U-251 = test: Antitumor activity against human U251 cells assessed as cell growth at 0.1 uM; assay type: functional; details: read-out: Activity
SK-OV-3 = test: Antitumor activity against human SKOV3 cells assessed as cell growth at 0.1 uM; assay type: functional; details: read-out: Activity
[3] = tested on: Mycobacterium tuberculosis; test: Antitubercular activity against Mycobacterium tuberculosis H37Rv assessed as growth inhibition after 12 to 28 days by L.J. agar MIC method; assay type: functional
Aspergillus niger = test: Antimicrobial activity against Aspergillus niger MTCC 282 assessed as growth inhibition measured after overnight incubation by broth dilution method; assay type: functional
SF-268 = test: Antitumor activity against human SF268 cells assessed as cell growth at 0.1 uM; assay type: functional; details: read-out: Activity
Streptococcus pyogenes = test: Antimicrobial activity against Streptococcus pyogenes MTCC 442 assessed as growth inhibition measured after overnight incubation by broth dilution method; assay type: functional
[4] = Antitumor activity against human HCC2998 cells assessed as cell growth at 0.1 uM; assay type: functional; details: HCC 2998, read-out: Activity
SF-539 = test: Antitumor activity against human SF539 cells assessed as cell growth at 0.1 uM; assay type: functional; details: read-out: Activity
SW-620 = test: Antitumor activity against human SW620 cells assessed as cell growth at 0.1 uM; assay type: functional; details: read-out: Activity
NCI/ADR-RES = test: Antitumor activity against human NCI/ADR-RES cells assessed as cell growth at 0.1 uM; assay type: functional; details: read-out: Activity
HT-29 = test: Antitumor activity against human HT-29 cells assessed as cell growth at 0.1 uM; assay type: functional; details: read-out: Activity
CAKI-1 = test: Antitumor activity against human CAKI-1 cells assessed as cell growth at 0.1 uM; assay type: functional; details: read-out: Activity
A498 = test: Antitumor activity against human A498 cells assessed as cell growth at 0.1 uM; assay type: functional; details: read-out: Activity
IGROV-1 = test: Antitumor activity against human IGROV1 cells assessed as cell growth at 0.1 uM; assay type: functional; details: read-out: Activity
UACC-62 = test: Antitumor activity against human UACC62 cells assessed as cell growth at 0.1 uM; assay type: functional; details: read-out: Activity
SK-MEL-28 = test: Antitumor activity against human SK-MEL-28 cells assessed as cell growth at 0.1 uM; assay type: functional; details: read-out: Activity
HCT-116 = test: Antitumor activity against human HCT116 cells assessed as cell growth at 0.1 uM; assay type: functional; details: read-out: Activity
SN12C = test: Antitumor activity against human SN12C cells assessed as cell growth at 0.1 uM; assay type: functional; details: read-out: Activity
Pseudomonas aeruginosa = test: Antimicrobial activity against Pseudomonas aeruginosa MTCC 2488 assessed as growth inhibition measured after overnight incubation by broth dilution method; assay type: functional
SK-MEL-2 = test: cells; details: Homo sapiens, SK-MEL-2, read-out: Activity
Description: Antitumor activity against human SK-MEL-2 cells assessed as cell growth at 0.1 uM

M14 = test: Antitumor activity against human M14 cells assessed as cell growth at 0.1 uM; assay type: functional; details: read-out: Activity
OVCAR-8 = test: Antitumor activity against human OVCAR8 cells assessed as cell growth at 0.1 uM; assay type: functional; details: read-out: Activity
Aspergillus clavatus = test: Antimicrobial activity against Aspergillus clavatus MTCC 1323 assessed as growth inhibition measured after overnight incubation by broth dilution method; assay type: functional
RXF 393 = test: Antitumor activity against human RXF393 cells assessed as cell growth at 0.1 uM; assay type: functional; details: read-out: Activity
SNB-19 = test: Antitumor activity against human SNB19 cells assessed as cell growth at 0.1 uM; assay type: functional; details: read-out: Activity
NCI-H522 = test: Antitumor activity against human NCI-H522 cells assessed as cell growth at 0.1 uM; assay type: functional; details: read-out: Activity
DU-145 = test: Antitumor activity against human DU145 cells assessed as cell growth at 0.1 uM; assay type: functional; details: read-out: Activity
T47D = test: Antitumor activity against human T47D cells assessed as cell growth at 0.1 uM; assay type: functional; details: read-out: Activity
BT-549 = test: Antitumor activity against human BT549 cells assessed as cell growth at 0.1 uM; assay type: functional; details: read-out: Activity
PC-3 = test: Antitumor activity against human PC3 cells assessed as cell growth at 0.1 uM; assay type: functional; details: read-out: Activity
OVCAR-5 = test: Antitumor activity against human OVCAR5 cells assessed as cell growth at 0.1 uM; assay type: functional; details: read-out: Activity
HCT-15 = test: Antitumor activity against human HCT15 cells assessed as cell growth at 0.1 uM; assay type: functional; details: read-out: Activity
LOX IMVI = test: Antitumor activity against human LOXIMVI cells assessed as cell growth at 0.1 uM; assay type: functional; details: read-out: Activity

O=C(CSc1nnc(-c2cccnc2SCc2ccccc2)o1)Nc1nc(Cl)cc(Cl)n1
growth at 0.1 µM (TK-10): 109% | growth at 0.1 µM (NCI-H460): 105% | growth at 0.1 µM (MDA-MB-231): 92% | growth at 0.1 µM (SR): 101% | growth at 0.1 µM (UACC-257): 113% | growth at 0.1 µM (UO-31): 67.7% | growth at 0.1 µM (NCI-H23): 102% | growth at 0.1 µM (K562): 92.8% | MIC (Staphylococcus aureus): 250 µg/mL (≈ 495 µM) | growth at 0.1 µM (RPMI-8226): 100% | growth at 0.1 µM (HL-60): 98.3% | growth at 0.1 µM (NCI-H226): 83.7% | growth at 0.1 µM (CCRF-CEM): 101% | growth at 0.1 µM (MDA-MB-468): 98.8% | MIC (Candida albicans): 1000 µg/mL (≈ 1980 µM) | growth at 0.1 µM (HOP-62): 90.6% | growth at 0.1 µM [1]: 97.4% | growth at 0.1 µM (MCF7): 92% | growth at 0.1 µM [2]: 103% | growth at 0.1 µM (Malme-3M): 94% | growth at 0.1 µM (A549): 104% | growth at 0.1 µM (OVCAR-3): 106% | growth at 0.1 µM (MOLT-4): 95.7% | growth at 0.1 µM (SNB-75): 85.7% | growth at 0.1 µM (SF-295): 96.8% | growth at 0.1 µM (MDA-MB-435): 105% | MIC (Escherichia coli): 200 µg/mL (≈ 396 µM) | growth at 0.1 µM (ACHN): 103% | growth at 0.1 µM (SK-MEL-5): 101% | growth at 0.1 µM (OVCAR-4): 106% | growth at 0.1 µM (U-251): 106% | growth at 0.1 µM (SK-OV-3): 110% | growth inhibition (GI) [3]: 98% | MIC ([3]; Mycobacterium tuberculosis, H37Rv): 100 µg/mL (≈ 198 µM) | MIC (Aspergillus niger): 500 µg/mL (≈ 989 µM) | growth at 0.1 µM (SF-268): 99.8% | MIC (Streptococcus pyogenes): 200 µg/mL (≈ 396 µM) | growth at 0.1 µM [4]: 103% | growth at 0.1 µM (SF-539): 101% | growth at 0.1 µM (SW-620): 103% | growth at 0.1 µM (NCI/ADR-RES): 101% | growth at 0.1 µM (HT-29): 110% | growth at 0.1 µM (CAKI-1): 95.8% | growth at 0.1 µM (A498): 112% | growth at 0.1 µM (IGROV-1): 105% | growth at 0.1 µM (UACC-62): 101% | growth at 0.1 µM (SK-MEL-28): 113% | growth at 0.1 µM (HCT-116): 97.2% | growth at 0.1 µM (SN12C): 103% | MIC (Pseudomonas aeruginosa): 200 µg/mL (≈ 396 µM) | growth at 0.1 µM (SK-MEL-2): 102% | growth at 0.1 µM (M14): 92% | growth at 0.1 µM (OVCAR-8): 102% | MIC (Aspergillus clavatus): 500 µg/mL (≈ 989 µM) | growth at 0.1 µM (RXF 393): 105% | growth at 0.1 µM (SNB-19): 106% | growth at 0.1 µM (NCI-H522): 83.1% | growth at 0.1 µM (DU-145): 107% | growth at 0.1 µM (T47D): 98.5% | growth at 0.1 µM (BT-549): 102% | growth at 0.1 µM (PC-3): 94.5% | growth at 0.1 µM (OVCAR-5): 106% | growth at 0.1 µM (HCT-15): 106% | growth at 0.1 µM (LOX IMVI): 94.9%

— ChEMBL document CHEMBL2331210, “New 2-benzylsulfanyl-nicotinic acid based 1,3,4-oxadiazoles: their synthesis and biological evaluation” (2013)
